# Reference: patent US12564600B2, “System for enhancing therapeutic compliance of the anti-cancer compound E7766” (Eisai R&D Management Co., Ltd., priority 2019, dated 2026)
# Entries after “also recorded” stand apart in the source; their conditions may differ.
# What was measured:
# [1] = Pharmacokinetics and excretion in bile duct-cannulated rat, single IV dose; format: in vivo, Sprague Dawley rats; conditions: IV 1 mg/kg, Mean SD
# Description: (§1) Male bile duct-cannulated beagle dogs or Sprague Dawley rats (n=3) were given a single intravenous (IV) dose of Compound 1. Plasma, urine and bile samples were collected from the dogs, and blood, urine, bile and feces samples were collected from rats up to 48 hours post-dose. Blood samples were kept on wet ice after collection until centrifuged for separation of plasma. Urine samples were collected at intervals 0 to 4, 4 to 8, 8 to 24, and 24 to 48 hours post-dose into collection tubes on wet ice. Bile samples were collected at intervals 0 to 4, 4 to 8, 8 to 24, and 24 to 48 hours post-dose into collection tubes cooled via an ice pack. Feces samples for rats were collected over 0 to 24 hour interval. All samples were transferred into properly labeled tubes and stored at −70° C. until pending shipment to the bioanalytical facility. All samples were analyzed using LC-MS/MS and the pharmacokinetic parameters of Compound 1 were determined with Phoenix WinNonlin using non-compartmental analysis.
# (§2) Data are shown as Mean SD. NC indicates Not Collected.
# [2] = Pharmacokinetics and excretion in bile duct-cannulated dog, single IV dose; format: in vivo, beagle dogs; conditions: IV 0.075 mg/kg, up to 48 h, Mean SD
# Description: as §1, §2
# Permeability (Papp) = format: in vitro ADME; conditions: not told
# [3] = Pharmacokinetics in wild-type mice with or without rifampin co-dose; format: in vivo, wild-type FVB male mice
# Description: Age-matched Oatp1a/1b cluster-knockout, OATP1B1- or OATP1B3-knockin mice humanized on the Oatp1a/1b-knockout background, and wild-type FVB male mice were purchased from Taconic Biosciences (Hudson, N.Y., USA). Mice were between 8 and 10 weeks of age (22-34 g) at the time of study. Compound 1 was administered at a dose of 0.5 mg/kg coadministered with either vehicle or rifampin (30 mg/kg). Blood and liver samples were collected at 0.083, 0.25, 0.5, 1, 1.5, 3, 6 hours. Plasma was isolated from blood samples by centrifugation. All samples were stored at −80° C. until bioanalysis.
# Compound 1 was dosed via intravenous administration to WT, humanized, and KO mice. Blood, urine, and feces were collected from the animals over 6 hours. Blood spots were collected and expelled FTA™ DMPK-B DBS Card (GE Healthcare, Life Sciences, Whatman™) within the appropriate sample circle. Pharmacokinetics of Compound 1 in WT animals was also assessed after co-administration with rifampin. Liver samples were also collected from WT animals and frozen until analysis. All samples were analyzed using LC-MS/MS and the pharmacokinetics parameters of Compound 1 were determined with Phoenix WinNonlin using non-compartmental analysis.
# FIG. 2A through 2C show an in vivo PK profile and elimination of Compound 1 with and without a co-dose of the Oatp/OATP inhibitor Rifampin in different mouse models.
# [4] = system: sandwich-cultured human hepatocytes (SCHH); experiment: Hepatic uptake in sandwich-cultured human hepatocytes; format: in vitro ADME
# Description: Hepatic uptake and hepatobiliary disposition of Compound 1 was evaluated in sandwich-cultured human hepatocytes (SCHH) prepared from one donor. For assessing hepatic uptake, Compound 1 was incubated for 1, 5, and 10 minutes and the solutions were collected and frozen at −80° C. until process for bioanalysis. The wells were then washed three times with ice cold Plus (+) Buffer and were frozen at −80° C. until processed for bioanalysis. Biliary excretion of compound 1 was assessed in SCHH utilizing B-CLEAR® Technology. Briefly, cell culture medium was removed, and hepatocytes were washed twice with warm Plus (+) or Minus (−) Buffer to maintain or disrupt tight junctions, respectively. The wash solutions were removed and replaced with fresh Plus (+) Buffer or Minus (−) Buffer. The hepatocytes were conditioned for 10 minutes at 37° C. The conditioning solutions were removed and replaced with dosing solutions for Compound 1. Following a 20 minute incubation, the solutions were collected and frozen at −80° C. until process for bioanalysis. The wells were then washed three times with ice cold Plus (+) Buffer. The plates were frozen at −80° C. until processed for bioanalysis. The biliary excretion index (BEI) was calculated according to following equation: […]
smiles,measurement,setting,value
O=[P@]1(S)OC[C@H]2O[C@@H]3[C@H](F)[C@@H]2O[P@](=O)(S)OC[C@H]2O[C@H]([C@H](F)[C@@H]2O1)n1cnc2c(ncnc21)NC/C=C/CNc1ncnc2c1ncn23 [Compound 1],"% Ae, feces",[1]; 0 to 24 h,0.4 ± 0.2%
same,"% Ae, urine","[1]; up to 48 h, 1 mg/kg",13.7 ± 2.8%
same,"% Ae, bile",[2],87.9 ± 30.5%
same,Papp,Permeability (Papp),0.36 ×10⁻⁶ cm/s
same,fold decrease of liver/plasma Kp with rifampin,"[3]; male, FVB, mouse, liver and plasma, with rifampin 30 mg/kg co-dosed, wild type mice, IV, read-out: decrease of Kp (liver/plasma) in the presence of Rifampin",5
same,decrease of biliary excretion on co-dosing rifampin,"[3]; mouse models of FIG. 2A-2C (wild type and OATP1Bs humanized), rifampin co-dose",66-79%
same,increase of Cmax in the presence of rifampin,"[3]; wild type mice, IV",about 2 fold
same,increase in plasma exposure in the presence of rifampin,"[3]; wild-type mice, 0.5 mg/kg IV, rifampin 30 mg/kg",5.4 fold
same,liver exposure (AUC) in the presence vs absence of rifampin,"[3]; wild-type mice, IV, rifampin co-administered",did not change significantly; also recorded: comparable
same,concentration at which hepatic uptake is saturated,[4]; SCHH,> 1000 nM
same,dose proportionality of hepatic uptake,"[4]; SCHH, 0.3 to 1 μM, 1 to 5 minutes of exposure",approximately dose-proportional
same,hepatic uptake at 4° C. relative to 37° C.,"[4]; SCHH, incubation at 4° C.",< 7.7 % of 37 °C
same,mechanism of uptake in human hepatocytes,[4]; human hepatocytes,temperature-dependent active uptake
same,inhibition of hepatocyte uptake by transporter inhibitors,"[4]; human hepatocytes, Rifampin, tetraethylammonium",could be inhibited by Rifampin but not by tetraethylammonium
